# In paper PMC6874530, “Structural analysis identifies an escape route from the adverse lipogenic effects of liver X receptor ligands” (Communications Biology, 2019):
# What was measured:
# [1] = quantification of drug concentration in plasma of mice; format: in vivo, mouse; conditions: oral gavage
# Method: Solid compounds were solubilized in PEG400/Ethanol/Solutol/Water solution (36.3/9.1/4.6/50%). Compounds were given daily by oral gavage, 5 ml kg^−1, at doses ranging from 0.1 to 100 μmol kg^−1 of body weight for 4 days. Animals were terminated 3 h after the last dose.
# At termination, the whole-blood volume was drawn from isoflurane-anesthetized mice via an incision in the carotid artery into EDTA blood tubes (S-Monovette®, EDTA KE/1.3 mL, Sarstedt, Nümbrecht, Germany or BD Microtainers®, Benton, Dickinson and Company, Franklin Lakes, New Jersey, USA). Blood samples were placed on ice and centrifuged within an hour (15 min, 2500 × g, 4 °C or 5 min, 16000 × g, 4 °C). The plasma was then dispensed in separate tubes and kept at −80 °C for later analysis of compound concentration and TG levels. For the analysis of intestinal Abca1 transcript levels, a 3–5-mm long segment of the duodenum was excised and cleared from any gut contents. Tissues were instantly snap frozen in liquid nitrogen and stored at −80 °C.
# About 25 µL of plasma was precipitated with 150 µL of cold acetonitrile containing 0.2% formic acid. After vortexing followed by 20 min of centrifugation at 3220 × g and 4 °C, the supernatant was diluted 1:1 with 0.2% formic acid (aqueous phase). […]
# [2] = biological target: T1, LXRα/SRC1 (Homo sapiens, UniProt Q13133); experiment: SPR cofactor recruitment, LXRα LBD binding to immobilized SRC1 coactivator peptide; conditions: LXRα LBD 0.02–10 µM equilibrated with compound (50 μM)
# T1 construct: Human his-tagged LXRα LBD (200-447); His tag; made in house; host or cells: Escherichia coli BL21(DE3)
# T1 sequence (Q13133 200-447): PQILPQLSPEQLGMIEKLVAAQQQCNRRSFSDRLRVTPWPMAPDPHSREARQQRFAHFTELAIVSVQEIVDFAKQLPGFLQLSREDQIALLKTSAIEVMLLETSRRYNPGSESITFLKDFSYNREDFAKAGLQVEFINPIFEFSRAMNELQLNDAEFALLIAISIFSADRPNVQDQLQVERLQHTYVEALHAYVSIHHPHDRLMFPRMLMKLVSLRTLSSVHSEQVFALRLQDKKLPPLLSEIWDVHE
# T1 sequence (Q15788 with tags, fused parts or gaps partner limits assumed): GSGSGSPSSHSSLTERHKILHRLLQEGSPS
# Method: (§1) The peptides carried an N-terminal biotin for surface immobilization on a Xantec NID200M Sensor Chip (NTA-derivatized carboxymethyldextran hydrogel, XanTec bioanalytics GmbH) preloaded with Ni^2+. […] LXRα and LXRβ LBD proteins were serially diluted in SPR running buffer (10 mM HEPES, 150 mM NaCl, and 0.05% Tween 20, pH 7.4) to a broad range of concentrations (0.02–10 µM) and equilibrated with tested compound (50 μM) prior to the sample injection over a modified biosensor surface. LXR-ligand complexes were injected in quick succession for 120 s over immobilized cofactor peptides and reference surfaces along with blank samples followed by 900 s of dissociation. The binding level at equilibrium was monitored for all samples, including the reference sample that contained DMSO at equal amount as tested compounds. All data were normalized to this reference sample in order to quantify the effects on peptide binding without bias by receptor instability. The surface was regenerated with 0.5% (w/v) SDS after each injection. Binding responses in the steady-state region of the sensorgrams were plotted against LXR LBD concentration to determine the overall equilibrium-binding affinity by fitting the data to nonlinear regression (Prism 8; GraphPad).
# [3] = biological target: T2, LXRβ LBD (Homo sapiens, UniProt P55055); conditions: LXRβ over LXRα binding
# T2 sequence (P55055 215-460 limits assumed): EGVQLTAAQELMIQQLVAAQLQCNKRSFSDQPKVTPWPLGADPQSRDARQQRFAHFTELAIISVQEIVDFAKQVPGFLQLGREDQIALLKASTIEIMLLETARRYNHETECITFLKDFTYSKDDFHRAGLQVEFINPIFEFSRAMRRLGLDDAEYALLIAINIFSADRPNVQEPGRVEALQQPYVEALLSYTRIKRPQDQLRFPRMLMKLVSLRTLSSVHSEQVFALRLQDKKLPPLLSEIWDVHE
# Text: The compounds were run in triplicate (binding assay) or in quadruplicate (transactivation assay). Standard deviations are indicated for individual experiments run more than once.
# [4] = biological target: T3, LXRβ/SRC1 (Homo sapiens, UniProt P55055); experiment: SPR cofactor recruitment, LXRβ LBD binding to immobilized SRC1 coactivator peptide; conditions: LXRβ LBD 0.02–10 µM equilibrated with compound (50 μM), immobilized SRC1 peptide; read-out: LXRβ/SRC1 Kd
# T3 construct: human his-tagged LXRβ LBD (216-461); His tag; made in house; host or cells: Escherichia coli BL21(DE3)
# T3 sequence (P55055 215-460 limits assumed): T2 sequence (P55055 215-460 limits assumed)
# T3 sequence (Q15788 with tags, fused parts or gaps partner limits assumed): T1 sequence (Q15788 with tags, fused parts or gaps partner limits assumed)
# Method: as §1
# [5] = biological target: T4, LXRα/NCOR1 (Homo sapiens, UniProt Q13133); experiment: SPR cofactor recruitment, LXRα LBD binding to immobilized NCOR1 corepressor peptide
# T4 construct: Human his-tagged LXRα LBD (200-447); His tag; made in house; host or cells: Escherichia coli BL21(DE3)
# T4 sequence (Q13133 200-447): T1 sequence (Q13133 200-447)
# T4 sequence (O75376 with tags, fused parts or gaps partner limits assumed): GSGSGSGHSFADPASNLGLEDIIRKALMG
# Method: as §1
# [6] = biological target: T5, LXRβ/NCOR1 (Homo sapiens, UniProt P55055); experiment: SPR cofactor recruitment, LXRβ LBD binding to immobilized NCOR1 corepressor peptide
# T5 construct: human his-tagged LXRβ LBD (216-461); His tag; made in house; host or cells: Escherichia coli BL21(DE3)
# T5 sequence (P55055 215-460 limits assumed): T2 sequence (P55055 215-460 limits assumed)
# Method: as §1
# [7] = system: LXR KO macrophages; experiment: LXR target gene expression in LXR KO macrophages; format: cell-based; conditions: reply to reviewers
# [8] = system: ABCA1 mRNA; experiment: human whole blood assay, ABCA1 mRNA; format: cell-based; conditions: preliminary results, reply to reviewers
# [9] = system: plasma triglycerides; set-up: method as in van der Hoorn et al. 2011; conditions: AZ876 high dose 20 µmol·kg−1·day−1, GW3965 at a similar dose; ref van der Hoorn et al. 2011; cited from earlier work
structure (smiles),measurement,setting,value
CN(C)C(=O)c1cnc(N2CC[C@@H](CNC3=C(c4ccccc4)S(=O)(=O)N(C(C)(C)C)C3=O)C2)c(Cl)c1 [AZ5],systemic exposure,[1],too low
CC(C)N1C(=O)C(NC2CCN(c3ncc(CC(=O)O)cc3Cl)CC2)=C(c2ccccc2)S1(=O)=O [AZ6],Kd,[2],1500 nM
CC(C)(C)N1C(=O)C(Cc2ccccc2)=C(NC2CCN(c3ncc(CC(=O)O)cc3Cl)CC2)C1=O [AZ7],LXRβ binding selectivity,[3],more than tenfold
CC(C)(O)c1cn(-c2ccc(-c3cc(F)c(CO)c(S(C)(=O)=O)c3)cc2F)c(C(C)(C)c2c(Cl)cccc2Cl)n1 [BMS-852927],Kd,[4],19.8 µM
same,effect on the LXRα/NCOR1 interaction,[5],enhanced the interaction
same,effect on the LXRβ/NCOR1 interaction,[6],enhanced the interaction
same,LXR target gene expression in LXR KO macrophages,[7],does not induce LXR
same,ABCA1 mRNA levels in human whole blood assay,[8],"induces ABCA1 mRNA levels, however with lower efficiency than full"
"O=C(O)Cc1cccc(OCCCN(Cc2cccc(C(F)(F)F)c2Cl)CC(c2ccccc2)c2ccccc2)c1 [GW3965, reference compound]",increase of plasma triglyceride levels,[9],70%
